Like-named read-outs stand apart in the source and are kept apart here.
Experiments:
[1] = biological target: T1, rat liver HMG-CoA reductase (Rattus norvegicus, UniProt P51639); test: Test A: In Vitro Inhibition of Microsomal HMG-CoA Reductase; assay type: biochemical; settings: microsomal rat liver enzyme; [3-14C]-HMG-CoA 0.33 mM, NADPH 3.0 mM; pH 7.2
T1 construct: from tissue; host or cells: rat liver microsomes
T1 sequence (P51639 1-887): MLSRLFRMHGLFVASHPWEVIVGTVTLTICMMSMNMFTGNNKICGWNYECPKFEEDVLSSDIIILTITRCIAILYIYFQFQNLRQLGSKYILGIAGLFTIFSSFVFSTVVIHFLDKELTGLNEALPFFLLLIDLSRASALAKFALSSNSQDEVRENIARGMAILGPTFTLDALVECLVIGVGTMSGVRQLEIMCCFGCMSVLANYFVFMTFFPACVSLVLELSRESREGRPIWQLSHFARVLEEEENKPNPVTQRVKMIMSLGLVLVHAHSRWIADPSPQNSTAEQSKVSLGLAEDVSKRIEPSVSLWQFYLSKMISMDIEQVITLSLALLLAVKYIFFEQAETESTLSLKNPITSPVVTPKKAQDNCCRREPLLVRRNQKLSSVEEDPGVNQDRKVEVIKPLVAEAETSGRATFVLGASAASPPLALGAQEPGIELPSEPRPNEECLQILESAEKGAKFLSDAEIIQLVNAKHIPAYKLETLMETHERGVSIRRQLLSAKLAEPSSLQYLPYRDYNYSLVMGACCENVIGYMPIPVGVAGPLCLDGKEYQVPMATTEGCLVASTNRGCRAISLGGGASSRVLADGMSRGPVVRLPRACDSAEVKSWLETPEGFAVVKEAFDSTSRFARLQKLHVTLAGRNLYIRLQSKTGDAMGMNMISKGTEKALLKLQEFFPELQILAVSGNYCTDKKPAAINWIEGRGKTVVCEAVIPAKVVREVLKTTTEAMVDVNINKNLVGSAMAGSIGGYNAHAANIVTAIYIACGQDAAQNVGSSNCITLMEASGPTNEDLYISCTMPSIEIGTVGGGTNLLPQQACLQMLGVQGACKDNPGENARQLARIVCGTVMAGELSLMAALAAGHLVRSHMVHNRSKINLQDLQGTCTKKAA
Experimental: Test A: In Vitro Inhibition of Microsomal HMG-CoA Reductase:
The intact, fully activated microsomal form of rat liver HMG-CoA reductase (subunit MW ca 100,000 daltons) was prepared as described by Parker, et al., Biochem. Biophys. Res. Commun., 125, 629-635 (1984), and used as the source of enzyme for assays. HMG-CoA reductase activity was determined essentially by the method of Shapiro, et al., Biochem. Biophys. Acta., 370, 369-377 (1974), with modifications as described by Ingebritsen and Gibson, Meth. Enzymol. 71, 486-497 (1981) with the exception that the internal standard ^3 H-mevalonolactone is added after termination of the assay. In this procedure, the enzyme is assayed by measuring the formation of product, ^14 C-mevalonate, from the substrate, [3-^14 C]-HMG-CoA, in the presence of NADPH. The ^14 C-mevalonate is converted to its lactone and isolated by silica thin-layer chromatography (Whatman LK5D, developed in 50:50 benzene:acetone) in the presence of ^3 H-mevalonolactone as an internal standard. Assays were conducted under conditions in which product formation was linear with respect to time and enzyme concentration.
To measure reductase inhibition, test compounds dissolved in water or dimethylsulfoxide and diluted in buffer A (50 mM imidazole-HCl, 250 mM NaCl, 1 mM EDTA, 1 mM EGTA, 5 mM DTT, 20 μM leupeptin, pH=7.2) were incubated with aliquots of microsomes (80-160 μg protein in buffer A) followed by addition of d,1-[3-^14 C]-HMG-CoA (0.33 mM, 2.0 dpm/picomole) and NADPH (3.0 mM). The 50 percent inhibitory concentration (IC50) for each compound in Table 1 was calculated from the linear regression line of the percent decrease (from control) in enzyme activity vs. log concentration of inhibitor, determined using at least 4 dilutions of each test compound assayed in duplicate.

[2] = test system: Isolated Hepatocyte Cholesterol Biosynthesis; test: Test B: Isolated Hepatocyte Cholesterol Biosynthesis Assay; assay type: cell-based, male Wistar rats; settings: isolated rat hepatocytes, 10 min preincubation, 60 minutes at 37°, incorporation into sterols, read-out: Inhibition of Isolated Hepatocyte Cholesterol Biosynthesis IC50
Experimental: Test B: Isolated Hepatocyte Cholesterol Biosynthesis Assay:
Intact parenchymal hepatocytes were isolated from male Wistar rats (180-280 g) fed cholestyramine-containing or normal diet, using the collagenase perfusion method essentially as described by Seglen, in Methods in Cell Biology (D. Prescott, ed.) Vol. 13, pp. 29-83, Academic Press, New York (1976). Cell preparations were used only when viability (trypan blue exclusion) exceeded 90%. Cholesterol biosynthesis was determined as the incorporation by hepatocytes of ^3 H from [^3 H]-water into total (cellular plus medium) 3β-hydroxy sterols as per Ingebritsen, et al., J. Biol. Chem., 254, 9986-9989 (1979). Hepatocyte sterols and lipids were isolated by a modification of the methods described by Kates, in Techniques in Lipidology, (M. Kates, ed.), pp. 349, 360-363, North Holland Publ. Co., Amsterdam, 1972. […] The ^3 H-labelled sterols are quantified by liquid scintillation and corrected for counting efficiency. […]
Cells were preincubated for 10 minutes with or without aliquots of test compounds added as water solutions of sodium salts or as dimethylsulfoxide solutions of lactones. […] The IC50 for inhibition of sterol synthesis by test compounds which is shown in Table 2 was calculated from the linear regression curve of % inhibition (compared to controls) vs. log concentration using at least 4 concentrations of inhibitor. […]

[3] = test system: de novo biosynthesis of cholesterol; test: Test C: In Vivo Acute Cholesterol Biosynthesis Inhibition in Rats; design: species or system male Wistar rats; settings: Rattus norvegicus, 1 h
Experimental: Test C: In Vivo Acute Cholesterol Biosynthesis Inhibition in Rats:
Male Wistar rats (160-200 g, housed 2 per cage) were maintained on normal diet (Purina Rat Chow and water, ad libitum) for at least 7 days on a reversed lighting schedule (7:00 a.m. to 5:00 p.m. dark). Food was removed 15 hours prior to dosing. Compounds were administered at 8:00 a.m. by intragastric intubation using 0.5-1.0 mL of water or propylene glycol solutions of sodium salts, lactones, or esters of the test compounds. Controls received equal volumes of the vehicle.
Thirty minutes after receiving the test substances, rats were injected intraperitoneally with 0.9 mL of 0.9% NaCl containing approximately 120 μCi per kg body weight of sodium [1-^14 C] acetate (1-3 mCi/mmol). After a 60 minute incorporation period, rats were sacrificed and liver and blood samples were obtained. Aliquots of plasma (1.0 mL) obtained by centrifugation of heparin+EDTA-treated blood, and aliquots of liver homogenates (equivalent to 0.50 g liver wet weight) were taken for determination of radiolabeled 3β-hydroxy sterols. Sterol isolation for the liver samples followed the method of Kates as described above for the hepatocyte procedure (Test B) while the plasma samples were directly saponified followed by isolation of the digitonin-precipitable sterols. ^14 C-labelled sterols were quantified by liquid scintillation counting (efficiency corrected). Mean percent inhibition of ^14 C incorporated into liver and into plasma cholesterol were calculated for groups of treated animals and compared to mean values for controls conducted simultaneously.
Therefore, Test C provides information on the ability of test substances to suppress the de novo biosynthesis of cholesterol in vivo in rats with oral dosing.

| SMILES | IC50 [1] [nM] | IC50 [2] [nM] | ED50 ([3]; read-out: 50% Inhibitory Dose (ED50), liver cholesterol, oral (intragastric), liver, 14C-acetate incorporation 60 minutes) [mg/kg] | ED50 ([3]; read-out: 50% Inhibitory Dose (ED50), plasma cholesterol, oral (intragastric), plasma, 14C-acetate incorporation 60 minutes) [mg/kg] | ED50 ([3]; oral (intragastric), 14C-acetate incorporation 60 minutes, read-out: ED50 value (reference agent, tissue not stated)) [mg/kg] |
| --- | --- | --- | --- | --- | --- |
| Cn1nnnc1C(/C=C/[C@@H](O)C[C@@H](O)CC(=O)O)=C(c1ccc(F)cc1)c1ccc(F)cc1 (relative stereo) [Example 12, Sodium (±)-erythro-9,9-bis(4-fluorophenyl)-3,5-dihydroxy-8-(1-methyl-1H-tetrazol-5-yl)-6,8-nonadionate] | 37 ± 10 | 23 ± 11 | 0.08 | 0.08 | – |
| Cn1nnnc1C(/C=C/[C@@H]1C[C@@H](O)CC(=O)O1)=C(c1ccc(F)cc1)c1ccc(F)cc1 (relative stereo) [Example 13, Trans-6-[4,4-bis(4-fluorophenyl)-3-(1-methyl-1H-tetrazol-5-yl)-1,3-butadienyl]-tetrahydro-4-hydroxy-2H-pyran-2-one] | 1090 ± 290 | – | – | – | – |
| Cn1nnnc1C(/C=C/C=C/[C@@H](O)C[C@@H](O)CC(=O)O)=C(c1ccc(F)cc1)c1ccc(F)cc1 (relative stereo) [Example 15, Sodium (±)-erythro-11,11-bis(4-fluorophenyl)-3,5-dihydroxy-10-(1-methyl-1H-tetrazol-5-yl)-6,8,10-undecatrienoate] | 5700 | – | – | – | – |
| CCOC(=O)C[C@H](O)C[C@H](O)/C=C/C(=C(c1ccc(F)cc1)c1ccc(F)cc1)c1nnnn1C (relative stereo) [Example 11, Ethyl (±)-erythro-9,9-bis(4-fluorophenyl)-3,5-dihydroxy-8-(1-methyl-1H-tetrazol-5-yl)-6,8-nonadienoate] | > 330000 | – | – | – | – |
| CC[C@H](C)C(=O)O[C@H]1C[C@@H](C)C=C2C=C[C@H](C)[C@H](CC[C@@H]3C[C@@H](O)CC(=O)O3)[C@H]21 [Mevinolin (Lovastatin), reference compound] | – | 46 ± 26 | – | – | 0.04 |

— patent publication US4897490A, “Antihypercholesterolemic tetrazole compounds” (Bristol-Meyers Company, priority 1988, dated 1990)
